# Laboratory results: patent publication US12583848B2, “Isoxazole-3-carboxamide derivatives and their use for treatment of diseases caused by virus infection” (Collaborations Pharmaceuticals, Inc., priority 2019, dated 2026)
# Where “and” joins values, the source holds several entries; their conditions need not be identical. Identical values can stand only once. Like-named read-outs stand apart in the source and are kept apart here.
# Experiments:
# [1] = system: influenza A virus, subtype H1N1 (strain California/07/2009); test: microbe, parasite or virus in culture; type: cell-based; set-up: SI50: unit not given beside the values
# [2] = Microsomal stability, human liver microsomes; type: in vitro ADME
# Experimental: (§1) In vitro ADME studies were performed on compound 8.
# [3] = system: polio virus-1 (strain Mahoney); test: organism not typed; type: cell-based; set-up: SI50: unit not given beside the values
# [4] = system: CVB3 97927-I1207T (pleconaril-resistant variant); type: cell-based, coxsackievirus B3
# [5] = system: viruses resistant to pleconaril; test: Inhibition of replication of a broad spectrum of EV in vitro; type: cell-based; settings: read-out: IC50 values for viruses resistant to pleconaril
# [6] = system: Enterovirus D68 (EV-D68 MP30 PP); type: in vivo, AG129 mice; settings: for weight loss (percentage of initial body weight) following infection: 100 mg/kg/d PO, EV-D68 infected AG129 mice, days 1-5
# [7] = Microsomal stability, mouse liver microsomes; type: in vitro ADME
# Experimental: as §1
# CYP3A4 = settings: for CYP3A4 induction, % of control: control = rifampicin; for CYP3A4 induction (fold): cryopreserved hepatocytes, midazolam substrate
# cytochrome P450 = test: Effect on cytochrome P450 enzyme activity; type: in vitro ADME
# Protein binding, human = type: in vitro ADME
# Experimental: as §1
# [8] = system: enterovirus 71 (strain Tainan/4643/98); test: microbe, parasite or virus in culture; type: cell-based; set-up: SI50: unit not given beside the values
# Protein binding, mouse = type: in vitro ADME
# Experimental: as §1
# [9] = system: Enterovirus 68 (strain US/KY/14-18953); test: microbe, parasite or virus in culture; type: cell-based; set-up: SI50: unit not given beside the values
# [10] = system: CVB3 97927-I1207K (pleconaril-resistant variant); type: cell-based, coxsackievirus B3
# [11] = mouse, in vivo, po
# PXR = PXR (Homo sapiens, UniProt O75469); test: biochemical
# Chain of PXR (O75469 111-434 limits assumed): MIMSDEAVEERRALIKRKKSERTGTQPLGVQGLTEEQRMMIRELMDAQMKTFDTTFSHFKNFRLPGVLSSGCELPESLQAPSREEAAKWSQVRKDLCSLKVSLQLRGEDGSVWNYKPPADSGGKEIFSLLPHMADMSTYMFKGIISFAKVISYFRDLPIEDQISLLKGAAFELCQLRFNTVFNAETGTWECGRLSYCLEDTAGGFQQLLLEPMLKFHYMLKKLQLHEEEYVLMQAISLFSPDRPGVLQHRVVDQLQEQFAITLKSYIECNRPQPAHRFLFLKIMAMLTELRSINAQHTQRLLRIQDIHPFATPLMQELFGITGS
# rhinovirus A2 (RV-A2) = test: organism not typed; type: cell-based; settings: HeLa, 72 h, read-out: IC50 against Rhinoviruses (RV) RV-A2
# [12] = Pharmacokinetic study in mice; type: in vivo, white BALB/c male mice
# Experimental: The pharmacokinetics of the compound 8 has been studied in white BALB/c male mice. 22 animals with average body weight of 20 g were selected for the study. Before the experiment the animals were kept on standard vivarium ration with dry pelleted feed. All the test animals had free access to water but were deprived of food for 1 hour before administration of the compound. This regimen was continued for another hour after the administration. […] The animals were euthanized by decapitation for blood sampling. […] Blood was collected in heparinized tubes and centrifuged at 3500 RPM. Plasma was separated from formed elements and immediately frozen at -20° C. in freezer. This storage continued before transferring of plasma for analysis. Serum from 6 untreated animals was used as control and for equipment calibration with compound. Mice brain was immediately frozen at -120° C. Plasma separation: […] Sample preparation: A mixture of 50 μL of plasma and 150 μL of MeCN by intensive shaking (Vortex) for 30 sec. Centrifugation 14000 g for 4 min. […] See also FIG. 1.
# HeLa cells = settings: human
# Solubility = type: physicochemical; settings: pH 7.4, aqueous buffer
# Experimental: as §1
# mouse-adapted EV D68 = test: microbe, parasite or virus in culture; type: cell-based; set-up: SI50: unit not given beside the values
# rhinovirus B5 (RV-B5) = test: organism not typed; type: cell-based; settings: HeLa cells, CPE inhibition, 72 hours; n.a. = not active; read-out: IC50 against Rhinoviruses (RV) RV-B5
# rhinovirus B14 (RV-B14) = test: organism not typed; type: cell-based; settings: HeLa, 72 h, read-out: IC50 against Rhinoviruses (RV) RV-B14
# Caco-2 = test: Cell permeability (Caco-2); type: in vitro ADME; settings: concluded from Caco-2 efflux
# Experimental: (§2) In vitro ADME studies were performed on compound 8. Cell permeability (Caco-2) results were as follows: Apical (A) to (Basolateral) B 8.8×10^−4 cm/s; […]
# [13] = Cell permeability (Caco-2); type: in vitro ADME; settings: human, Caco-2
# Experimental: as §2
# [14] = read-out: Protein binding, bound (converted)
# [15] = mice, 100 mg/kg intragastric, plasma
structure (smiles),measurement,setting,value
"Cc1cc(-c2noc(C(F)(F)F)n2)ccc1OCCCc1cc(C(=O)N(C)C)no1 [Compound 8, N,N-dimethyl-5-(3-{2-methyl-4-[5-(trifluoromethyl)-1,2,4-oxadiazol-3-yl]phenoxy}propyl)isoxazole-3-carboxamide]",SI50,[1],4.3
same,EC90,"[1]; Influenza A virus, H1N1",4.4 µM
same,half-life,[2],55.3 min
same,microsomal CLint,[2],25.1 µL/min/mg
same,SI50,[3],11
same,EC50,[3]; Vero 76,320 nM
same,IC50,[4],10 nM
same,IC50,[5],40 to 640 nM
same,Mutagenicity,Escherichia coli PQ37,NO
same,weight loss (percentage of initial body weight) following infection,[6],protected mice from weight loss
same,weight loss (percentage of initial body weight) following infection,[6]; listed as compound 8,significant protection from weight loss
same,blood virus,[6]; day 5 post-infection,No virus was detected
same,microsomal stability (verdict),[7],unstable
same,half-life,[7]; read-out: half-life (t1/2),19.6 min
same,microsomal CLint,[7]; read-out: intrinsic clearance (CLint),70.6 µL/min/mg
same,CC50,in vitro,52 µM
same,"CYP3A4 induction, % of control",CYP3A4; 1 μM,3 % of control
same,CYP3A4 induction (fold),CYP3A4; 1 μM,1.2 ×
same,"CYP3A4 induction, % of control",CYP3A4; 10 μM,7 % of control
same,CYP3A4 induction (fold),CYP3A4; 10 μM,1.4 ×
same,effect on cytochrome P450 enzyme activity,cytochrome P450,without affecting cytochrome P450 enzyme activity
same,"Protein binding, stability","Protein binding, human",93.9%
same,fraction unbound,"Protein binding, human; [14]",0.003
same,SI50,[8],24
same,EC50,"[8]; Enterovirus A, Vero 76",940 nM
same,"Protein binding, stability","Protein binding, mouse",88.1%
same,fraction unbound,"Protein binding, mouse; [14]",0.002
same,SI50,[9],>520
same,EC50,[9]; Enterovirus D,18 nM
same,IC50,[10],3.67 µM
same,Maximum tolerated dose (MTD),[11],at least 100 milligrams per kilogram body weight per day
same,IC50,PXR,> 100 µM
same,IC50,rhinovirus A2 (RV-A2),410 nM
same,Concentration in mice plasma,"[12]; 0.50 hours, individual mice, 100 mg/kg intragastric, 100 mg/kg",963.29 ng/mL and 2031.52 ng/mL and 1979.28 ng/mL and 2114.06 ng/mL and 1464.12 ng/mL
same,Concentration in mice plasma,"[12]; 1 hour, individual mice, 100 mg/kg intragastric, 100 mg/kg",660.65 ng/mL and 1138.34 ng/mL
same,Concentration in mice plasma,"[12]; 2 hours, individual mice, 100 mg/kg intragastric, 100 mg/kg",667.90 ng/mL and 379.89 ng/mL and 461.99 ng/mL
same,Concentration in mice plasma,"[12]; 3 hours, individual mice, 100 mg/kg intragastric, 100 mg/kg",344.86 ng/mL and 107.10 ng/mL and 403.55 ng/mL
same,Concentration in mice plasma,"[12]; 5 hours, individual mice, 100 mg/kg intragastric, 100 mg/kg",228.15 ng/mL and 74.82 ng/mL and 147.00 ng/mL
same,Concentration in mice plasma,"[12]; 7 hours, individual mice, 100 mg/kg intragastric, 100 mg/kg",90.82 ng/mL and 44.49 ng/mL and 13.49 ng/mL and 45.70 ng/mL
same,concentration at 0.5 h,"[12]; male, BALB/c, mouse, plasma, oral, 100 mg/kg, 0.50 hours, 100 mg/kg intragastric",1710 ng/mL
same,concentration at 1 h,"[12]; male, BALB/c, mouse, plasma, oral, 100 mg/kg, 1 hour, 100 mg/kg intragastric, read-out: Concentration in mice plasma, Average",966 ng/mL
same,concentration at 1 h,"[12]; male, BALB/c, mouse, plasma, oral, 100 mg/kg, 1 hour, individual mice, 100 mg/kg intragastric, read-out: Concentration in mice plasma",1100 ng/mL
same,concentration at 2 h,"[12]; male, BALB/c, mouse, plasma, oral, 100 mg/kg, 2 hours, 100 mg/kg intragastric, read-out: Concentration in mice plasma, Average",536 ng/mL
same,concentration at 2 h,"[12]; male, BALB/c, mouse, plasma, oral, 100 mg/kg, 2 hours, individual mice, 100 mg/kg intragastric, read-out: Concentration in mice plasma",634 ng/mL
same,concentration at 3 h,"[12]; male, BALB/c, mouse, plasma, oral, 100 mg/kg, 3 hours, 100 mg/kg intragastric",285 ng/mL
same,concentration at 5 h,"[12]; male, BALB/c, mouse, plasma, oral, 100 mg/kg, 5 hours, 100 mg/kg intragastric",124 ng/mL
same,concentration at 7 h,"[12]; male, BALB/c, mouse, plasma, oral, 100 mg/kg, 7 hours, 100 mg/kg intragastric",49.6 ng/mL
same,AUC,"[12]; male, BALB/c, mouse, po, mice, 100 mg/kg intragastric, plasma, read-out: AUC0-oo",3020 ng·h/mL
same,oral bioavailability,[12]; mice,very high oral bioavailability
same,CL,[12]; [15],0.66 L/h
same,Cmax.,[12]; [15],1710.5 ± 489.2 ng/mL
same,MRT,[12]; [15],2.15 h
same,T1/2,[12]; [15],1.58 h
same,Tmax.,[12]; [15],30 min
same,Vd,[12]; [15],1.52 L
same,kel,[12]; [15],0.4373 h⁻¹
same,CC50,HeLa cells,13.4 µM
same,solubility,Solubility,0.11 µM
same,SI50,mouse-adapted EV D68,173
same,EC50,"mouse-adapted EV D68; Enterovirus D, EVD68",23 nM
same,IC50,rhinovirus B5 (RV-B5),2260 nM
same,IC50,rhinovirus B14 (RV-B14),70 nM
same,P-gp substrate,Caco-2,likely P-gp substrate
same,efflux ratio,[13],3.5
